Reference: patent US11261136B2, “Triarylmethane compounds for controlling enzyme-induced urea decomposition” (priority 2017, dated 2022)
Where two headings read alike, the source gives them in different places.

Columns and labels:
[1] = biological target: T1, jackbean urease enzyme (Canavalia ensiformis, UniProt P07374); experiment: Jackbean urease inhibition, Example 1 repeated with buffer at pH 7; type: biochemical
T1 construct: purchased
Procedure: (§1) An aqueous solution containing 0.105 moles/L of monosodium phosphate was adjusted to a pH of 5.0 with sodium hydroxide. Suitable quantities of a solution of 3,3′,4-trihydroxysuchsone-2″-sulfonic acid were added, with stirring, to 19.0 mL of the above phosphate solution, to give a series of mixtures having the following concentrations of sulfonic acid: 100, 250, 500, 750, 1000, 2000, and 5000 ppb. Next, commercial jackbean urease enzyme solution of known concentration was added to each mixture to provide 40 units of enzyme per 50 mL of the mixture. The mixtures were allowed to stand for 5 hours in closed glass containers at 20° C., followed by the addition to each mixture of 1.00 mL of freshly prepared urea solution (2.00 moles/L), to give an overall reaction concentration of 0.100 moles/L of both urea and phosphate. These mixtures, containing phosphate, sulfonic acid, urease, and urea were deemed A mixtures.
(§2) Simultaneously, two more solutions were identically prepared, namely an enzyme-free control where both 3,3′,4-trihydroxysuchsone-2″-sulfonic acid and enzyme are omitted (mixture B), and an enzyme control where enzyme is present without any 3,3′,4-trihydroxysuchsone-2″-sulfonic acid (mixture C). Solution urea concentrations were measured immediately in each of the mixtures, and again after a 120-minute interval.
(§3) For purposes of these tests, the C mixture containing urease and urea was deemed to provide 0% inhibition, whereas the B mixture containing urea without urease was deemed to provide 100% inhibition.
Example 1 was repeated, but with the addition of a buffer to maintain a pH of 7.0 in all of the A, B, and C mixtures. The A mixtures contained the following amounts of the 3,3′,4-trihydroxysuchsone-2″-sulfonic acid: 100, 250, 500, 750, and 1000 ppb. It is known in the art that urease enzyme activity is greater and more difficult to inhibit at neutral pH, as compared with an acid pH, and that the much lower treatment levels would give less urease inhibition.

[2] = biological target: T1, jackbean urease enzyme; experiment: biochemical; details: pH 5
Procedure: as §1, §2, §3

[3] = test system: urease enzyme; details: industry standard, added at 0.2% v/v of the urea solution; cited from earlier work
[4] = cited from earlier work
[5] = test system: urease enzyme; experiment: Nitrogen volatilization of 50:50 urea:water solutions (gas trap and FIA instrument)
Excerpt: Various concentrations of Catechol Violet paired with polymer, were examined utilizing the gas trap and FIA instrument at Alltech (Sparta, Ill.). Treatment replicates are shown across the horizontal axis, and percent Nitrogen concentration (expressed as ammonia that has volatilized) is given in the vertical axis. For FIGS. 1, 2, 4A, and 4B, the treatments proceed in number order along the horizontal axis, moving from left to right, with the left being the lowest treatment number and the right being the highest treatment number. For FIGS. 3A and 3B, the treatments proceed as described above, with the exception of treatment 7, which is the farthest right along the horizontal axis. Briefly, the lower the amount of volatilized nitrogen, the greater the inhibition of the activity of the urease enzyme.
Each set of treatments includes:
• 1) An untreated control (50:50 urea:water, w/w). […] Concentrations and details of each treatment are given in the following paragraphs. 7.1—Three Day Results of Catechol Violet Solutions (FIG. 1)

[6] = used with UAN; 87 trials and 487 comparisons; cited from earlier work
[7] = biological target: urease (Canavalia ensiformis, UniProt P07374); details: in solution; cited from earlier work
urease, sequence (P07374 whole entry, looked up): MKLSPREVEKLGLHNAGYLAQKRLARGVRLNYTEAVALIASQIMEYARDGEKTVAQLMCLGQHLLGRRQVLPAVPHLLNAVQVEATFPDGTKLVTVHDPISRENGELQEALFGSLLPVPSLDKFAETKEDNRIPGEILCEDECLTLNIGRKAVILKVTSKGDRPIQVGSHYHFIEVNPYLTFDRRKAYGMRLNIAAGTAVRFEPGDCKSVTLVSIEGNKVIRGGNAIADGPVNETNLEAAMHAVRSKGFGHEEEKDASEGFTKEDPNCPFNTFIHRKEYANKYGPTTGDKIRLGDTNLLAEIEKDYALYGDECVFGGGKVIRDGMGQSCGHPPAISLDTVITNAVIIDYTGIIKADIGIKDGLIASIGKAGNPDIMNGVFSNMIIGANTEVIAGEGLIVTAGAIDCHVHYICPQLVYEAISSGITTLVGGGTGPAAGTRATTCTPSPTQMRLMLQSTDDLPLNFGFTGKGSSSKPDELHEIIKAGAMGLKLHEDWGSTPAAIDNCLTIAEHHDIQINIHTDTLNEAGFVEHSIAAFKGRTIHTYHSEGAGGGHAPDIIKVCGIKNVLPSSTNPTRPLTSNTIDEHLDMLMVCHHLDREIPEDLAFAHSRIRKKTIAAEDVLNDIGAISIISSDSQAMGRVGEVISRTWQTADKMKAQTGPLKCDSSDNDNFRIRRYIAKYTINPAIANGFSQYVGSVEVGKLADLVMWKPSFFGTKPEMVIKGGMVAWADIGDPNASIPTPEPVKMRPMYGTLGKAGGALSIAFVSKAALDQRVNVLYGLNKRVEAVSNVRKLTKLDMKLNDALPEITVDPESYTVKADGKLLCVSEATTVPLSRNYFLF

T1 sequence (P07374 whole entry, looked up): as above

For O=C1C=C/C(=C(/c2ccc(O)c(O)c2)c2ccccc2S(=O)(=O)O)C=C1O [3,3′,4-trihydroxysuchsone-2″-sulfonic acid], the inhibition at 0.1 ppm [1] was 2%, the inhibition at 0.25 ppm [1] was 30% and the inhibition at 0.5 ppm [1] was 41%. It also gave an inhibition at 0.75 ppm [1] of 46%, an inhibition at 1 ppm [1] of 50% and an inhibition at 0.1 ppm [2] of 7%. It also gave an inhibition at 0.25 ppm [2] of 22%, an inhibition at 0.5 ppm [2] of 25% and an inhibition at 0.75 ppm [2] of 45%. The inhibition at 1 ppm [2] was 61%, the inhibition at 2 ppm [2] was 76% and the inhibition at 5 ppm [2] was 88%.
In the case of CCCCNP(N)(N)=S [NBPT, N-(n-butyl) thiophosphoric triamide], the “inhibition of N-volatilization (historical)” value [3] is listed as “near-total inhibition of N-volatilization”, the “NBPT content lost on storage” value ([4]; after six months) is listed as “over 99%” and the “NBPT content lost on storage” value ([4]; storage at 25° C. for three months) is listed as “up to 40%”. The “urease activity and N-loss through volatilization (FIGS. 3A and 3B)” value ([5]; NBPT (Agrotain Ultra) 0.2% v/v, three and seven day test) was “inhibits urease activity and N-loss through volatilization”, the “7-day N-loss via volatilization (FIG. 4B)” value ([5]; after 7 days, compared to untreated urea solution) was “continue to limit N-loss via volatilization when compared to the untreated urea solution” and the “average improvement in yield” value [6] was “about 1.6 bushels/acre”. The “trials resulting in yield losses” value [6] was “about 40%”.
In the case of O=C1C=CC(=O)C=C1 [benzoquinone], the “concentration at which effective urease inhibitors” value [7] is given as “about 1 ppm by weight”.
In the case of Oc1ccccc1O [catechol], the “concentration at which effective urease inhibitors” value [7] is listed as “about 1 ppm by weight”.
